# Measurements taken from patent US7109186B2 (Bristol-Myers Squibb Company, priority 2002, dated 2006).
# Tested on: not given
# Assay: not given
# Details: not given
row,Compound,melting point
1,"CON(Cc1ccc(F)c(F)c1)C(=O)C1=C(O)C(=O)N(C)C1 [Compound 54, 4-Hydroxy-1-methyl-5-oxo-2,5-dihydro-1H-pyrrole-3-carboxylic acid (3,4-difluoro-benzyl)-methoxy-amide]",146 to 147 °C
2,"CON(Cc1ccc(Cl)c(Cl)c1)C(=O)C1=C(O)C(=O)N(C)C1 [Compound 47, 4-Hydroxy-1-methyl-5-oxo-2,5-dihydro-1H-pyrrole-3-carboxylic acid (3,4-dichloro-benzyl)-methoxy-amide]",149 °C
3,"CN(Cc1ccc(Cl)c(Cl)c1)C(=O)C1=C(O)C(=O)N(C2CC2)C1 [Compound 14, 1-Cyclopropyl-4-hydroxy-5-oxo-2,5-dihydro-1H-pyrrole-3-carboxylic acid (3,4-dichloro-benzyl)-methyl-amide]",163 to 164 °C
4,"CON(CCc1ccc(F)cc1)C(=O)C1=C(O)C(=O)N(C)C1 [Compound 52, 4-Hydroxy-1-methyl-5-oxo-2,5-dihydro-1H-pyrrole-3-carboxylic acid [2-(4-fluoro-phenyl)-ethyl]-methoxy-amide]",157 °C (dec.)
5,CON(Cc1ccc(C(F)(F)F)cc1)C(=O)C1=C(O)C(=O)N(CCN2CCOCC2)C1,119 °C (dec.)
6,CON(Cc1ccc(F)cc1C(F)(F)F)C(=O)C1=C(O)C(=O)N(C)C1,167 °C (dec.)
7,CON(Cc1ccc(F)cc1)C(=O)C1=C(O)C(=O)N(C)C1,125 °C (dec.)
8,CON(CCCc1ccc(Cl)c(Cl)c1)C(=O)C1=C(O)C(=O)N(C)C1,106 to 108 °C
9,CN1CC(C(=O)N(C)Cc2ccc(C(F)(F)F)cc2)=C(O)C1=O,126 to 128 °C
10,CN1CC(C(=O)N(C)CCCc2ccc(F)cc2)=C(O)C1=O,129 °C (dec.)
11,CON(Cc1ccc(C(F)(F)F)cc1)C(=O)C1=C(O)C(=O)N(C)C1,145 °C (dec.)

# Biological target: T1, HIV-integrase (Human immunodeficiency virus type 1 group M subtype B, UniProt P04585)
# T1 construct: 0.26 ng of recombinant integrase was incubated with the beads for 90 min at 37 C
# Assay: HIV integrase SPA integration assay (biotin-labeled substrate DNA on streptavidin SPA beads, P33-labeled target DNA)
# Assay type: biochemical
# Details: percent inhibition of HIV-integrase in the presence of 20 μM of compound
# Experimental: For each reaction, 5 pmole of biotin labeled substrate DNA was bound to 100 ug of Streptavidin coated PVT SPA beads (Amersham Pharmacia Biotech). 0.26 ng of recombinant integrase was incubated with the beads for 90 min at 37 C. Unbound enzyme was removed by washing the complex followed by addition of inhibitors and 0.1 fmol of P33 labeled target DNA. Reaction was stopped by adding EDTA to a final concentration of 10 mM. Samples were counted in TopCountNXT (Packard) and the CPM was used as a measure of integration. Reaction condition was as described in A. Engelman and R. Craigie, J. Virol. 69, 5908–5911 (1995). The sequences of substrate and target DNA were described in Nucleic Acid Research 22, 1121–1122 (1994).
row,Compound,inhibition at 20 µM
1,"CON(Cc1ccc(F)c(F)c1)C(=O)C1=C(O)C(=O)N(C)C1 [Compound 54, 4-Hydroxy-1-methyl-5-oxo-2,5-dihydro-1H-pyrrole-3-carboxylic acid (3,4-difluoro-benzyl)-methoxy-amide]",99.9%
2,"CON(Cc1ccc(Cl)c(Cl)c1)C(=O)C1=C(O)C(=O)N(C)C1 [Compound 47, 4-Hydroxy-1-methyl-5-oxo-2,5-dihydro-1H-pyrrole-3-carboxylic acid (3,4-dichloro-benzyl)-methoxy-amide]",99.9%
3,"CN(Cc1ccc(Cl)c(Cl)c1)C(=O)C1=C(O)C(=O)N(C2CC2)C1 [Compound 14, 1-Cyclopropyl-4-hydroxy-5-oxo-2,5-dihydro-1H-pyrrole-3-carboxylic acid (3,4-dichloro-benzyl)-methyl-amide]",99.7%
4,"CON(CCc1ccc(F)cc1)C(=O)C1=C(O)C(=O)N(C)C1 [Compound 52, 4-Hydroxy-1-methyl-5-oxo-2,5-dihydro-1H-pyrrole-3-carboxylic acid [2-(4-fluoro-phenyl)-ethyl]-methoxy-amide]",86%
5,"CN(Cc1ccc(Cl)c(Cl)c1)C(=O)C1=C(O)C(=O)N(CCCn2ccnc2)C1 [Compound 30, 4-Hydroxy-1-(3-imidazol-1-yl-propyl)-5-oxo-2,5-dihydro-1H-pyrrole-3-carboxylic acid (3,4-dichloro-benzyl)-methyl-amide]",99.9%
6,"CN(Cc1ccc(Cl)c(Cl)c1)C(=O)C1=C(O)C(=O)N(CCNC(=O)CCN2CCOCC2)C1 [Compound 38, 4-Hydroxy-1-[2-(3-morpholin-4-yl-propionylamino)-ethyl]-5-oxo-2,5-dihydro-1H-pyrrole-3-carboxylic acid (3,4-dichloro-benzyl)-methyl-amide]",99.9%
7,"CN1CC(C(=O)N(Cc2ccc(F)cc2)Cc2ccc(F)cc2)=C(O)C1=O [Compound 76, 4-Hydroxy-1-methyl-5-oxo-2,5-dihydro-1H-pyrrole-3-carboxylic acid bis-(4-fluoro-benzyl)-amide]",96%
8,"CN1CC(C(=O)N(C)Cc2ccc(F)cc2)=C(O)C1=O [Compound 1, 4-Hydroxy-1-methyl-5-oxo-2,5-dihydro-1H-pyrrole-3-carboxylic acid (4-fluoro-benzyl)-methyl amide]",99.9%
9,"CN(Cc1ccc(Cl)c(Cl)c1)C(=O)C1=C(O)C(=O)N(CCC#N)C1 [Compound 42, 1-(2-Cyano-ethyl)-4-hydroxy-5-oxo-2,5-dihydro-1H-pyrrole-3carboxylic acid (3,4-dichloro-benzyl)-methyl-amide]",99.9%
10,CN(Cc1ccc(Cl)c(Cl)c1)C(=O)C1=C(O)C(=O)N(CCC(=O)NC(Cc2cncn2C)C(=O)O)C1 (centres unmarked) [Compound 29],99.9%
11,"CN(Cc1ccc(Cl)c(Cl)c1)C(=O)C1=C(O)C(=O)N(CCC(N)=O)C1 [Compound 40, 1-(2-Carbamoyl-ethyl)-4-hydroxy-5-oxo-2,5-dihydro-1H-pyrrole-3-carboxylic acid (3,4-dichloro-benzyl)-methyl-amide]",99.9%
12,"COC(=O)CCN1CC(C(=O)N(C)Cc2ccc(Cl)c(Cl)c2)=C(O)C1=O [Compound 34, 3-{4-[(3,4-Dichloro-benzyl)-methyl-carbamoyl]-3-hydroxy-2-oxo-2,5-dihydro-pyrrol-1-yl}-propionic acid methyl ester]",99.9%
13,CC(=O)NCCN1CC(C(=O)N(C)Cc2ccc(Cl)c(Cl)c2)=C(O)C1=O [Compound 27],99.9%
14,"CN(Cc1ccc(Cl)c(Cl)c1)C(=O)C1=C(O)C(=O)N(Cc2ccc(Cl)c(Cl)c2)C1 [Compound 19, 1-(3,4-Dichloro-benzyl)-4-hydroxy-5-oxo-2,5-dihydro-1H-pyrrole-3-carboxylic acid (3,4-dichloro-benzyl)-methyl-amide]",99.9%
15,"CN(Cc1ccc(Cl)c(Cl)c1)C(=O)C1=C(O)C(=O)N(CCN2CCOCC2)C1 [Compound 13, 4-Hydroxy-1-(2-morpholin-4-yl-ethyl)-5-oxo-2,5-dihydro-1H-pyrrole-3-carboxylic acid (3,4-dichloro-benzyl)-methyl-amide]",99.9%
16,"CN(Cc1ccc(Cl)c(Cl)c1)C(=O)C1=C(O)C(=O)N(CCc2ccc(S(N)(=O)=O)cc2)C1 [Compound 17, 4-Hydroxy-5-oxo-1-[2-(4-sulfamoyl-phenyl)-ethyl]-2,5-dihydro-1H-pyrrole-3-carboxylic acid (3,4-dichloro-benzyl)-methyl-amide]",99.9%
17,"CN1CC(C(=O)N(Cc2ccc(Cl)cc2)Cc2ccc(Cl)c(Cl)c2)=C(O)C1=O [Compound 77, 4-Hydroxy-1-methyl-5-oxo-2,5-dihydro-1H-pyrrole-3-carboxylic acid (4-chloro-benzyl)-(3,4-dichloro-benzyl)-amide]",99.8%
18,"CN(Cc1ccc(Cl)c(Cl)c1)C(=O)C1=C(O)C(=O)N(CC(=O)NCC(=O)NCCC(=O)NCC(=O)O)C1 [Compound 35, {3-[2-(2-{4-[(3,4-Dichloro-benzyl)-methyl-carbamoyl]-3-hydroxy-2-oxo-2,5-dihydro-pyrrol-1-yl}-acetylamino)-acetylamino]-propionylamino}-acetic acid]",99.9%
19,"CN(Cc1ccc(F)cc1)C(=O)C1=C(O)C(=O)N(CCc2ccncc2)C1 [Compound 7, 4-Hydroxy-5-oxo-1-(2-pyridin-4-yl-ethyl)-2,5-dihydro-1H-pyrrole-3-carboxylic acid (4-fluoro-benzyl)-methyl-amide]",99.9%
20,"CN(Cc1ccc(Cl)c(Cl)c1)C(=O)C1=C(O)C(=O)N(CCN2CCCCC2)C1 [Compound 26, 4-Hydroxy-5-oxo-1-(2-piperidin-1-yl-ethyl)-2,5-dihydro-1H-pyrrole-3-carboxylic acid (3,4-dichloro-benzyl)-methyl-amide]",99.9%
21,"CN1CC(C(=O)N(C)Cc2ccc(Cl)c(Cl)c2)=C(O)C1=O [Compound 12, 4-Hydroxy-1-methyl-5-oxo-2,5-dihydro-1H-pyrrole-3-carboxylic acid (3,4-dichloro-benzyl)-methyl amide]",99.9%
22,"CN(Cc1ccc(Cl)c(Cl)c1)C(=O)C1=C(O)C(=O)N(CCC(=O)NCCC(=O)O)C1 [Compound 37, 3-(3-{4-[(3,4-Dichloro-benzyl)-methyl-carbamoyl]-3-hydroxy-2oxo-2,5-dihydro-pyrrol-1-yl}-propionylamino)-propionic acid]",99.9%
23,"CN(Cc1ccc(Cl)c(Cl)c1)C(=O)C1=C(O)C(=O)N(CCCN2CCOCC2)C1 [Compound 43, 4-Hydroxy-1-(3-morpholin-4-yl-propyl)-5-oxo-2,5-dihydro-1H-pyrrole-3-carboxylic acid (3,4-dichloro-benzyl)-methyl-amide]",99.9%
24,"CN(Cc1ccc(Cl)c(Cl)c1)C(=O)C1=C(O)C(=O)N(CCCCCCC(=O)O)C1 [Compound 28, 7-{4-[(3,4-dichloro-benzyl)-methyl-carbamoyl]-3-hydroxy-2-oxo-2,5-dihydro-pyrrol-1-yl}-heptanoic acid]",99.9%
25,"CN(Cc1ccc(Cl)c(Cl)c1)C(=O)C1=C(O)C(=O)N(CCCC(=O)O)C1 [Compound 24, 4-{4-[(3,4-Dichloro-benzyl)-methyl-carbamoyl]-3-hydroxy-2-oxo-2,5-dihydro-pyrrol-1-yl}-butyric acid]",99.9%
26,"CN(Cc1ccc(F)cc1)C(=O)C1=C(O)C(=O)N(CCc2cccs2)C1 [Compound 4, 4-Hydroxy-5-oxo-1-(2-thiophen-2-yl-ethyl)-2,5-dihydro-1H-pyrrole-3-carboxylic acid (4-fluoro-benzyl)-methyl-amide]",99.9%
27,"CN(Cc1ccc(F)cc1)C(=O)C1=C(O)C(=O)N(CCc2ccc(Cl)cc2)C1 [Compound 2, 1-[2-(4-Chloro-phenyl)ethyl]-4-hydroxy-5-oxo-2,5-dihydro-1H-pyrrole-3-carboxylic acid (4-fluoro-benzyl)-methyl amide]",99.9%
28,"CC(C)N1CC(C(=O)N(C)Cc2ccc(F)cc2)=C(O)C1=O [Compound 11, 4-Hydroxy-1-isopropyl-5-oxo-2,5-dihydro-1H-pyrrole-3-carboxylic acid (4-fluoro-benzyl)-methyl-amide]",99.9%
29,"CN(Cc1ccc(Cl)c(Cl)c1)C(=O)C1=C(O)C(=O)N(CC(C)(C)C)C1 [Compound 16, 1-(2,2-Dimethyl-propyl)-4-hydroxy-5-oxo-2,5-dihydro-1H-pyrrole-3-carboxylic acid (3,4-dichloro-benzyl)-methyl-amide]",99.9%
30,"CCN1CCCC1CN1CC(C(=O)N(C)Cc2ccc(Cl)c(Cl)c2)=C(O)C1=O (centres unmarked) [Compound 22, 1-(1-Ethyl-pyrrolidin-2-ylmethyl)-4-hydroxy-5-oxo-2,5-dihydro-3-carboxylic acid (3,4-dichloro-benzyl)-methyl-amide]",99.9%
